Test results: the supplement of paper PMC10307832

What was measured:
Assay in all cases: relative viability (nuclei count vs DMSO), 5 days (fraction); higher = more cells survive
[1] = compound: COc1nc(N)nc2c1ncn2[C@@H]1O[C@H](CO)[C@@H](O)[C@@H]1O [Nelarabine] + COc1cccc2cc(-c3nc([C@H]4CC[C@H](C(=O)O)CC4)n4ncnc(N)c34)[nH]c12 [OSI-027] (partner 0.5 µM)
How it was run: (§1)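 A single step with final 0.05% Triton X-100, 1% formaldehyde and 1 ug/ml Hoechst fixed the cells and stained nuclei 5 days after treatment. Lung cancer cell lines in 1536-well plates had been treated by pin tool the day after seeding with one drug alone or a fixed anchor-drug dose plus five library-drug doses (not always all listed) in √10 steps, and nuclei were counted on 4× images. Relative viability is the ratio of nuclei in treated wells to nuclei in vehicle wells, taken as the median of duplicate plates.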

[2] = compound: C=CCn1c(=O)c2cnc(Nc3ccc(N4CCN(C)CC4)cc3)nc2n1-c1cccc(C(C)(C)O)n1 [Adavosertib] + C[C@@H](Oc1cc(-c2cnn(C3CCNCC3)c2)cnc1N)c1c(Cl)ccc(F)c1Cl [Crizotinib] (partner 1 µM)
How it was run: as §1

[3] = compound: C=CCn1c(=O)c2cnc(Nc3ccc(N4CCN(C)CC4)cc3)nc2n1-c1cccc(C(C)(C)O)n1 [Adavosertib] + CCNC(=O)c1noc(-c2cc(C(C)C)c(O)cc2O)c1-c1ccc(CN2CCOCC2)cc1 [Luminespib] (partner 0.01 µM)
How it was run: as §1

[4] = compound: C=CCn1c(=O)c2cnc(Nc3ccc(N4CCN(C)CC4)cc3)nc2n1-c1cccc(C(C)(C)O)n1 [Adavosertib] + Nc1nc2[nH]cc(CCc3ccc(C(=O)N[C@@H](CCC(=O)O)C(=O)O)cc3)c2c(=O)[nH]1 [Pemetrexed] (partner 0.2 µM)
How it was run: as §1

Cell Line: 201T
- relative viability ([1]; first compound 0.01 µM): 0.85
- relative viability ([1]; first compound 0.03162 µM): 0.638
- relative viability ([1]; first compound 0.1 µM): 0.762
- relative viability ([1]; first compound 0.3162 µM): 1.15
- relative viability ([1]; first compound 1 µM): 0.85
- relative viability ([2]; first compound 0.01 µM): 1.05
- relative viability ([2]; first compound 0.03162 µM): 0.992
- relative viability ([2]; first compound 0.1 µM): 1.08
- relative viability ([2]; first compound 0.3162 µM): 1.07
- relative viability ([3]; first compound 0.01 µM): 1.1
- relative viability ([3]; first compound 0.03162 µM): 1.04
- relative viability ([3]; first compound 0.1 µM): 1.05
- relative viability ([3]; first compound 0.3162 µM): 1.09
- relative viability ([4]; first compound 0.01 µM): 0.319
- relative viability ([4]; first compound 0.03162 µM): 0.343
- relative viability ([4]; first compound 0.1 µM): 0.325
- relative viability ([4]; first compound 0.3162 µM): 0.281

Cell Line: A549
- relative viability ([2]; first compound 0.01 µM): 0.733
- relative viability ([2]; first compound 0.03162 µM): 0.807
- relative viability ([2]; first compound 0.1 µM): 0.891
- relative viability ([2]; first compound 0.3162 µM): 0.702

Cell Line: A-427
- relative viability ([1]; first compound 0.01 µM): 0.489
- relative viability ([1]; first compound 0.03162 µM): 0.42
- relative viability ([1]; first compound 0.1 µM): 0.373
- relative viability ([1]; first compound 0.3162 µM): 0.443
- relative viability ([1]; first compound 1 µM): 0.52
- relative viability ([2]; first compound 0.01 µM): 0.972
- relative viability ([2]; first compound 0.03162 µM): 0.931
- relative viability ([2]; first compound 0.1 µM): 1.02
- relative viability ([2]; first compound 0.3162 µM): 0.962
- relative viability ([3]; first compound 0.01 µM): 0.877
- relative viability ([3]; first compound 0.03162 µM): 1
- relative viability ([3]; first compound 0.1 µM): 1.05
- relative viability ([3]; first compound 0.3162 µM): 0.634
- relative viability ([4]; first compound 0.01 µM): 0.97
- relative viability ([4]; first compound 0.03162 µM): 0.905
- relative viability ([4]; first compound 0.1 µM): 0.892
- relative viability ([4]; first compound 0.3162 µM): 0.893

Cell Line: ABC-1
- relative viability ([1]; first compound 0.01 µM): 0.535
- relative viability ([1]; first compound 0.03162 µM): 0.48
- relative viability ([1]; first compound 0.1 µM): 0.38
- relative viability ([1]; first compound 0.3162 µM): 0.44
- relative viability ([1]; first compound 1 µM): 0.477
- relative viability ([2]; first compound 0.01 µM): 1.16
- relative viability ([2]; first compound 0.03162 µM): 1.19
- relative viability ([2]; first compound 0.1 µM): 1.05
- relative viability ([2]; first compound 0.3162 µM): 1.31
- relative viability ([3]; first compound 0.01 µM): 0.799
- relative viability ([3]; first compound 0.03162 µM): 0.357
- relative viability ([3]; first compound 0.1 µM): 0.584
- relative viability ([3]; first compound 0.3162 µM): 0.364

Cell Line: BEN
- relative viability ([1]; first compound 0.01 µM): 0.328
- relative viability ([1]; first compound 0.03162 µM): 0.293
- relative viability ([1]; first compound 0.1 µM): 0.541
- relative viability ([1]; first compound 0.3162 µM): 0.296
- relative viability ([1]; first compound 1 µM): 0.301
- relative viability ([2]; first compound 0.01 µM): 0.985
- relative viability ([2]; first compound 0.03162 µM): 0.998
- relative viability ([2]; first compound 0.1 µM): 0.825
- relative viability ([2]; first compound 0.3162 µM): 0.873
- relative viability ([3]; first compound 0.01 µM): 0.195
- relative viability ([3]; first compound 0.03162 µM): 0.501
- relative viability ([3]; first compound 0.1 µM): 0.413
- relative viability ([3]; first compound 0.3162 µM): 0.389
- relative viability ([4]; first compound 0.01 µM): 0.739
- relative viability ([4]; first compound 0.03162 µM): 0.76
- relative viability ([4]; first compound 0.1 µM): 0.816
- relative viability ([4]; first compound 0.3162 µM): 0.815

Cell Line: CAL-12T
- relative viability ([1]; first compound 0.01 µM): 0.616
- relative viability ([1]; first compound 0.03162 µM): 0.874
- relative viability ([1]; first compound 0.1 µM): 0.687
- relative viability ([1]; first compound 0.3162 µM): 0.635
- relative viability ([1]; first compound 1 µM): 0.583
- relative viability ([2]; first compound 0.01 µM): 0.935
- relative viability ([2]; first compound 0.03162 µM): 0.592
- relative viability ([2]; first compound 0.1 µM): 0.776
- relative viability ([2]; first compound 0.3162 µM): 0.509
- relative viability ([3]; first compound 0.01 µM): 0.312
- relative viability ([3]; first compound 0.03162 µM): 0.102
- relative viability ([3]; first compound 0.1 µM): 0.601
- relative viability ([3]; first compound 0.3162 µM): 0.23
- relative viability ([4]; first compound 0.01 µM): 1.15
- relative viability ([4]; first compound 0.03162 µM): 1.25
- relative viability ([4]; first compound 0.1 µM): 1.02
- relative viability ([4]; first compound 0.3162 µM): 0.682

Cell Line: COR-L23
- relative viability ([1]; first compound 0.01 µM): 0.911
- relative viability ([1]; first compound 0.03162 µM): 0.611
- relative viability ([1]; first compound 0.1 µM): 0.854
- relative viability ([1]; first compound 0.3162 µM): 0.878
- relative viability ([1]; first compound 1 µM): 0.759
- relative viability ([2]; first compound 0.01 µM): 0.69
- relative viability ([2]; first compound 0.03162 µM): 0.731
- relative viability ([2]; first compound 0.1 µM): 0.797
- relative viability ([2]; first compound 0.3162 µM): 0.304
- relative viability ([3]; first compound 0.01 µM): 0.614
- relative viability ([3]; first compound 0.03162 µM): 0.61
- relative viability ([3]; first compound 0.1 µM): 0.667
- relative viability ([3]; first compound 0.3162 µM): 0.232
- relative viability ([4]; first compound 0.01 µM): 0.203
- relative viability ([4]; first compound 0.03162 µM): 0.198
- relative viability ([4]; first compound 0.1 µM): 0.204
- relative viability ([4]; first compound 0.3162 µM): 0.165

Cell Line: COR-L 105
- relative viability ([1]; first compound 0.01 µM): 0.781
- relative viability ([1]; first compound 0.03162 µM): 0.82
- relative viability ([1]; first compound 0.1 µM): 0.531
- relative viability ([1]; first compound 0.3162 µM): 0.616
- relative viability ([1]; first compound 1 µM): 0.715
- relative viability ([2]; first compound 0.01 µM): 0.746
- relative viability ([2]; first compound 0.03162 µM): 0.836
- relative viability ([2]; first compound 0.1 µM): 0.795
- relative viability ([2]; first compound 0.3162 µM): 0.747
- relative viability ([3]; first compound 0.01 µM): 1.03
- relative viability ([3]; first compound 0.03162 µM): 0.698
- relative viability ([3]; first compound 0.1 µM): 0.962
- relative viability ([3]; first compound 0.3162 µM): 0.774
- relative viability ([4]; first compound 0.01 µM): 0.976
- relative viability ([4]; first compound 0.03162 µM): 1.07
- relative viability ([4]; first compound 0.1 µM): 1.07
- relative viability ([4]; first compound 0.3162 µM): 0.916

Cell Line: Calu-6
- relative viability ([2]; first compound 0.01 µM): 0.777
- relative viability ([2]; first compound 0.03162 µM): 0.746
- relative viability ([2]; first compound 0.1 µM): 0.916
- relative viability ([2]; first compound 0.3162 µM): 0.343

Cell Line: ChaGo-K-1
- relative viability ([1]; first compound 0.01 µM): 0.676
- relative viability ([1]; first compound 0.03162 µM): 0.444
- relative viability ([1]; first compound 0.1 µM): 0.663
- relative viability ([1]; first compound 0.3162 µM): 0.758
- relative viability ([1]; first compound 1 µM): 0.589
- relative viability ([2]; first compound 0.01 µM): 1.05
- relative viability ([2]; first compound 0.03162 µM): 1.05
- relative viability ([2]; first compound 0.1 µM): 1.21
- relative viability ([2]; first compound 0.3162 µM): 1.12
- relative viability ([3]; first compound 0.01 µM): 0.502
- relative viability ([3]; first compound 0.03162 µM): 0.683
- relative viability ([3]; first compound 0.1 µM): 0.489
- relative viability ([3]; first compound 0.3162 µM): 0.719
- relative viability ([4]; first compound 0.01 µM): 0.271
- relative viability ([4]; first compound 0.03162 µM): 0.255
- relative viability ([4]; first compound 0.1 µM): 0.258
- relative viability ([4]; first compound 0.3162 µM): 0.257

Cell Line: EBC-1
- relative viability ([2]; first compound 0.01 µM): 0.206
- relative viability ([2]; first compound 0.03162 µM): 0.192
- relative viability ([2]; first compound 0.1 µM): 0.206
- relative viability ([2]; first compound 0.3162 µM): 0.175

Cell Line: EKVX
- relative viability ([1]; first compound 0.01 µM): 0.797
- relative viability ([1]; first compound 0.03162 µM): 0.661
- relative viability ([1]; first compound 0.1 µM): 0.652
- relative viability ([1]; first compound 0.3162 µM): 0.729
- relative viability ([1]; first compound 1 µM): 0.685
- relative viability ([2]; first compound 0.01 µM): 1.13
- relative viability ([2]; first compound 0.03162 µM): 0.952
- relative viability ([2]; first compound 0.1 µM): 0.776
- relative viability ([2]; first compound 0.3162 µM): 1.06
- relative viability ([3]; first compound 0.01 µM): 0.875
- relative viability ([3]; first compound 0.03162 µM): 0.853
- relative viability ([3]; first compound 0.1 µM): 0.84
- relative viability ([3]; first compound 0.3162 µM): 0.967
- relative viability ([4]; first compound 0.01 µM): 0.426
- relative viability ([4]; first compound 0.03162 µM): 0.374
- relative viability ([4]; first compound 0.1 µM): 0.309
- relative viability ([4]; first compound 0.3162 µM): 0.362
